# Results from US12291529B2, “Heterocyclic GLP-1 agonists” (Gasherbrum Bio, Inc., priority 2023, dated 2025).
# Experiments:
# FaSSIF solubility = assay type: physicochemical; details: FaSSIF buffer, 25 °C, fassif, thermodynamic from solid
# Method: Stock solution of test article and control compound (chlorpromazine, astemizole, and phenytoin) were prepared in DMSO at 10 mM. 50 μL each of stock solutions were dried down, followed by reconstitution to 1 mM with FaSSIF buffer in the well. The incubation plate was shaked at 25° C., 1,100 rpm for 4 hours. And then, the samples were filtered by using the vacuum manifold. 10 μL aliquots from each well was transferred to a new 96-well plate and adjust the volume to 80 μL with blank buffer. Using a mixture of H2O and acetonitrile containing internal standard (1:1) to dilute the sample 100-fold, 500-fold and 2,500-fold. The samples are evaluated by LC/MS/MS analysis. All compounds were tested in singlet.
# [1] = Caco-2 permeability / efflux study; assay type: in vitro ADME; details: human; for Papp at 2 h, 10 μM: Caco-2, pH 7.4, 10 μM, 37° C., pH 7.4, 0.5% BSA, read-out: Caco-2 Perm; for efflux ratio at 2 h, 10 μM: Caco-2, pH 7.4, Caco-2 efflux ratio
# Method: Incubations with Caco-2 cell monolayers were performed in duplicate in a 96-well Transwell plate. Transport buffer solution (HBSS, 10 mM HEPES, pH 7.4, with 0.5% BSA) containing test article (10 μM), and either the control compounds metoprolol (10 μM), cimetidine (10 μM) and erythromycin (10 μM), was added to appropriate donor wells of the apical or basolateral plate. The transport buffer with DMSO was added to appropriate wells of receiver wells. Following incubation at 37° C. for 2 hours, the cell plates were removed and 50 μL samples from both apical and basolateral sides were transferred into new 96-well plates. Subsequently, 200 μL of acetonitrile containing internal standard was added to all samples to precipitate protein prior to analysis by UPLC-MS/MS. Lucifer yellow was used as a marker to confirm the integrity of the cell monolayers after 2 hours incubation.
# GLP-1 Receptor = GLP-1 Receptor (Homo sapiens, UniProt P43220); assay: GLP-1R agonist cAMP stimulation assay (HEK293/GLP1R/CRE-LUC cells, Cisbio cAMP dynamic 2 kit); assay type: cell-based
# Method in brief: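 cAMP was measured by HTRF (d2/cryptate, 1 h RT, 665 and 615 nm). Beforehand, compounds in half-log series were incubated 30 min at 37 °C with GLP-1R/CRE-Luc HEK293 cells (1000 per well) in IBMX (0.5 mM)-containing DPBS/BSA. Activity scaled between vehicle and maximal control.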
# [2] = Rat IV/PO PK study, Method A; assay type: in vivo, male Sprague Dawley (SD) rats; details: for AUC (ng · h/mL)_free form/dose / AUC / Cmax: PO; for AUC (ng · h/mL)_free form/dose: 5 mpk, free form; for half-life / bioavailability / AUC / Cmax: male, Sprague Dawley, plasma; for half-life: 1 mg/kg, elimination half life (IV); for half-life / bioavailability: Method A; for bioavailability: PO vs IV, read-out: Bioavailablility (% F); for AUC / Cmax: 5 mg/kg, *obtained under method 3A
# Method: Pharmacokinetics (PK) study was conducted on male Sprague Dawley (SD) rats by two delivery routes intravenous (IV) and/or oral gavage (PO). Rats in IV route (n=3) were free access to food and water. Rats in PO route (n=3) were fasted overnight and fed at 4 hrs post dosing. Test article was formulated in solution (10% solutol HS 15 in saline) for IV route and solution or suspension (10% solutol HS 15 in saline/water) for PO route, respectively. On the day of experiment, test article was administered via vein (e.g. foot dorsal vein) injection (commonly at 1 mg/kg and 5 mL/kg) for IV route or via oral gavage (commonly at 2 or 5 mg/kg and 5 mL/kg) for PO route, respectively. Blood samples were collected via serial bleeding at ˜8 time points from 0.083 to 24 hrs post dose. Approximate 150 μL of blood/time point was collected into K2EDTA tube via tail vein or jugular vein. Blood samples were put on wet ice and centrifuged to obtain plasma samples and plasma samples were submitted to LC-MS/MS for sample analysis. Pharmacokinetics parameters, including elimination half life (t1/2) (IV), area under the curve (AUC) and oral bioavailability (F %), etc. were calculated by non-compartmental model using WinNonlin.
# [3] = Rat PO PK study, Method B; assay type: in vivo, male Sprague Dawley (SD) rats; details: for rat PK exposure compared with C-5 and C-6: 5 to 100 mg/kg; for rat PK dose proportionality of exposure: free form, same formulation; for AUC / Cmax: male, Sprague Dawley, plasma
# Method: Pharmacokinetics (PK) study was conducted on male Sprague Dawley (SD) rats by oral gavage (PO). Rats in PO route (n=3) were free access to food and water. […] On the day of experiment, test article was administered via oral gavage (commonly at 10, 30, or 100 mg/kg, with dose volume as 10 mL/kg). Blood samples were collected via serial bleeding at ˜8 time points from 0.25 to 24 hrs post dose. Approximate 150 μL of blood/time point was collected into KzEDTA tube via tail vein or jugular vein. Blood samples were put on wet ice and centrifuged to obtain plasma samples and plasma samples were submitted to LC-MS/MS for sample analysis. Pharmiacokinetics parameters, including Cmax, and area under the curve (AUC), etc. were calculated by non-compartmental model using WinNonlin.
# [4] = Table 3, HEK293/GLP1R/CRE-LUC cells, 30 min
# [5] = 30 mg/kg, 20% solutol HS 15 in water
# [6] = 100 mg/kg, 20% solutol HS 15 in water
# GLP-1 Receptor, sequence (P43220 24-463, species assumed): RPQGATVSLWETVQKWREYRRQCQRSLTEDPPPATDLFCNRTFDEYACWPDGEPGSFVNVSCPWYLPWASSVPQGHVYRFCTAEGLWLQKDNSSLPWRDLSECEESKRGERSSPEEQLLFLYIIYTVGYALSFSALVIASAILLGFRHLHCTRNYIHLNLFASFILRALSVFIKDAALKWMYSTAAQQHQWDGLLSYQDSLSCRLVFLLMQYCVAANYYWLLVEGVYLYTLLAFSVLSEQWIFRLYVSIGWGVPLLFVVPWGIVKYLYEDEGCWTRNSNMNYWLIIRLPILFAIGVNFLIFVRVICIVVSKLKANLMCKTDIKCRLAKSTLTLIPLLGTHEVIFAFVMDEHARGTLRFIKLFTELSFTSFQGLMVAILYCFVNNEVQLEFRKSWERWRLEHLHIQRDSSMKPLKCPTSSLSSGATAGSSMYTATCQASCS
Structure (SMILES),solubility at 4 h (FaSSIF solubility) [µM],"Papp at 2 h, 10 μM [1] [×10⁻⁶ cm/s]","efflux ratio at 2 h, 10 μM [1]",EC50 (GLP-1 Receptor; [4]) [nM],EC50 (GLP-1 Receptor; Table 4) [nM],AUC (ng · h/mL)_free form/dose [2],half-life [2] [h],bioavailability [2] [%],AUC [2] [ng·h/mL],Cmax [2] [ng/mL],rat PK exposure compared with C-5 and C-6 [3],"AUC [3, 5] [ng·h/mL]","Cmax [3, 5] [ng/mL]","AUC [3, 6] [ng·h/mL]","Cmax [3, 6] [ng/mL]","AUC ([3]; 30 mg/kg, 10% solutol HS 15) [ng·h/mL]","Cmax ([3]; 30 mg/kg, 10% solutol HS 15) [ng/mL]","AUC ([3]; 100 mg/kg, 10% solutol HS 15) [ng·h/mL]","Cmax ([3]; 100 mg/kg, 10% solutol HS 15) [ng/mL]",rat PK dose proportionality of exposure [3]
"CN=S(=O)(c1ccc(-n2ccn(-c3c4c(nn3-c3cc(C)c(F)c(C)c3)CCN(C(=O)c3cc5cc([C@H]6CCOC(C)(C)C6)ccc5n3[C@@]3(c5noc(=O)[nH]5)C[C@@H]3C)[C@H]4C)c2=O)c(F)c1)C1CC1 (single isomer, unassigned) [Compound 180]",30,0.61,5.4,0.034,0.03,"4,954/5 mpk ng · h/mL",3,28,6100,1790,higher exposure than C-5 and C-6,–,–,–,–,97000,8340,167000,13300,good rat PK dose proportionality from 5 to 100 mg/kg
"CN=S(=O)(c1ccc(-n2ccn(-c3c4c(nn3-c3cc(C)c(F)c(C)c3)CCN(C(=O)c3cc5cc([C@H]6CCOC(C)(C)C6)ccc5n3[C@@]3(c5noc(=O)[nH]5)C[C@@H]3C)[C@H]4C)c2=O)c(F)c1C)C1CC1 (single isomer, unassigned) [Compound 195]",7.2,0.22,12,0.018,0.018,"9,545/5 mpk ng · h/mL",4.3,14,5000,774,higher exposure than C-5 and C-6,–,–,–,–,51100,3910,102000,7690,good rat PK dose proportionality from 5 to 100 mg/kg
"CCS(=O)(=NC)c1ccc(-n2ccn(-c3c4c(nn3-c3cc(C)c(F)c(C)c3)CCN(C(=O)c3cc5cc([C@H]6CCOC(C)(C)C6)ccc5n3[C@@]3(c5noc(=O)[nH]5)C[C@@H]3C)[C@H]4C)c2=O)c(F)c1 (single isomer, unassigned) [Compound 164]",8.9,0.62,5.5,0.024,0.024,"6,094/5 mpk ng · h/mL",2.4,29.4,9540,1880,higher exposure than C-5 and C-6,66200,5400,173000,11200,–,–,–,–,good rat PK dose proportionality from 5 to 100 mg/kg

# Further lines, with some results ahead:
solubility at 4 h (FaSSIF solubility) [µM],"Papp at 2 h, 10 μM [1] [×10⁻⁶ cm/s]","efflux ratio at 2 h, 10 μM [1]",EC50 (GLP-1 Receptor; [4]) [nM],EC50 (GLP-1 Receptor; Table 4) [nM],AUC (ng · h/mL)_free form/dose [2],half-life [2] [h],bioavailability [2] [%],AUC [2] [ng·h/mL],Cmax [2] [ng/mL],rat PK exposure compared with C-5 and C-6 [3],"AUC [3, 5] [ng·h/mL]","Cmax [3, 5] [ng/mL]","AUC [3, 6] [ng·h/mL]","Cmax [3, 6] [ng/mL]","AUC ([3]; 30 mg/kg, 10% solutol HS 15) [ng·h/mL]","Cmax ([3]; 30 mg/kg, 10% solutol HS 15) [ng/mL]","AUC ([3]; 100 mg/kg, 10% solutol HS 15) [ng·h/mL]","Cmax ([3]; 100 mg/kg, 10% solutol HS 15) [ng/mL]",Structure (SMILES),rat PK dose proportionality of exposure [3]
26,0.19,9.8,0.11,0.11,"4,997/5 mpk ng · h/mL",4.78,25.5,7430,1060,higher exposure than C-5 and C-6,67500,4710,124000,8680,–,–,–,–,"CN=S(=O)(c1ccc(-n2ccn(-c3c4c(nn3-c3cc(C)c(F)c(C)c3)CCN(C(=O)c3cc5cc([C@H]6CCOC(C)(C)C6)ccc5n3[C@@]3(c5noc(=O)[nH]5)C[C@@H]3C)[C@H]4C)c2=O)c(F)c1NC)C1CC1 (single isomer, unassigned) [Compound 238]",good rat PK dose proportionality from 5 to 100 mg/kg
4.5,0.16,26,–,0.0675,"4,276/5 mpk ng · h/mL",3.1,47,4280,744,–,–,–,–,–,58800,7540,86000,7480,"Cc1cc(-n2nc3c(c2-n2ccn(-c4ccc5c(cnn5C)c4F)c2=O)[C@H](C)N(C(=O)c2cc4cc([C@H]5CCOC(C)(C)C5)ccn4c2C2(c4noc(=O)[nH]4)CC2)CC3)cc(C2CC2)c1F [Compound C-6, reference compound]",–
